Laboratory results from ChEMBL document CHEMBL5344465, “Innovations in Pharmacology: Enhancing Bioavailability and Efficacy through Novel Compositions” (ACS Med Chem Lett, 2024).
The source made the active and inactive calls.

Columns and labels:
Format in all cases: functional, cell-based
[1] = system: Small intestinal epithelial cell; experiment: Antiinflammatory activity against TNFalpha/INFgamma induced human small intestinal epithelial cells assessed as reduction in IL-6 level
[2] = system: A 172; experiment: Neuroprotective activity against human A-172 cells assessed as effect on GABA level
[3] = system: A 172; experiment: Neuroprotective activity against human A-172 cells assessed as effect on BDNF level
[4] = system: Small intestinal epithelial cell; experiment: Antiinflammatory activity against TNFalpha/INFgamma induced human small intestinal epithelial cells assessed as reduction in COX-2 level

Measured: Activity

CN(C)CCc1c[nH]c2cccc(OP(=O)(O)O)c12
active: [1] | [2] | [3] | [4]

C=CCc1ccc(O)c(OC)c1
active: [1] | [2] | [3] | [4]
